What was measured:
HDAC6 = HDAC6 (Homo sapiens (Human), UniProt Q9UBN7); test: In vitro histone deacetylase activity assay (HTRF), HDAC6; assay type: biochemical; details: H3(1-21) K9Ac biotin substrate
Description: (§1) Human recombinant HDAC family proteins with His and GST tags were expressed using insect baculovirus expression system, and a biologically active HDAC family recombinant protein was obtained through Ni affinity column protein purification. HTRF detection method was used with H3(1-21) K9Ac biotin as the substrate. […] Briefly, 20 μl of the activity testing system included the HDAC substrate (0.2 μM. 4 μl), the Human Recombinant Protein HDAC (2-5 ng)/μl.

SKM-1 cells = test: Antiproliferative activity, CCK-8, SKM-1; assay type: cell-based, human
Description: (§2) The tumor cells used were purchased from commercial cell banks (HCT116 purchased from ATCC, SKM 1 purchased from JCRB). The growth inhibition of cells was detected using the CCK-8 method. The specific steps were as follows. Cells in the logarithmic growth phase were seeded into a 96 well culture plate at an appropriate density, with 90 μL/well. After overnight cultivation, different concentrations of drugs were added for treatment for 72 h, with each concentration in triplicate, and corresponding concentration of vehicle control and cell-free blank wells were also set. After the treatment, 10 μL of CCK-8 was added to each well and the plate was incubated in an incubator for 2-4 hours, and the optical density (OD value) at a wavelength of 450 nm was measured using a SpectraMax 190 microplate reader. […] The experiment was repeated twice, and the mean value and SD were calculated.
With reference to HCT-116 cell proliferation inhibition test method, the inhibitory activity of the compounds on the proliferation of human myelodysplastic syndrome cell SKM-1 was tested.

HCT-116 cells = test: Antiproliferative activity, CCK-8, HCT-116; assay type: cell-based, human
Description: as §2

HDAC1 = HDAC1 (Homo sapiens (Human), UniProt Q13547); test: In vitro histone deacetylase activity assay (HTRF), HDAC1; assay type: biochemical; details: H3(1-21) K9Ac biotin substrate
Description: as §1

HDAC2 = HDAC2 (Homo sapiens (Human), UniProt Q92769); test: HDAC subtype inhibitory activity (HTRF), HDAC2; assay type: biochemical
Description: as §1

HDAC10 = HDAC10 (Homo sapiens (Human), UniProt Q969S8); test: HDAC subtype inhibitory activity (HTRF), HDAC10; assay type: biochemical
Description: as §1

HDAC3 = HDAC3 (Homo sapiens (Human), UniProt O15379); test: HDAC subtype inhibitory activity (HTRF), HDAC3; assay type: biochemical
Description: as §1

HDAC8 = HDAC8 (Homo sapiens (Human), UniProt Q9BY41); test: HDAC subtype inhibitory activity (HTRF), HDAC8; assay type: biochemical
Description: as §1

Chain of HDAC6 (Q9UBN7 whole entry): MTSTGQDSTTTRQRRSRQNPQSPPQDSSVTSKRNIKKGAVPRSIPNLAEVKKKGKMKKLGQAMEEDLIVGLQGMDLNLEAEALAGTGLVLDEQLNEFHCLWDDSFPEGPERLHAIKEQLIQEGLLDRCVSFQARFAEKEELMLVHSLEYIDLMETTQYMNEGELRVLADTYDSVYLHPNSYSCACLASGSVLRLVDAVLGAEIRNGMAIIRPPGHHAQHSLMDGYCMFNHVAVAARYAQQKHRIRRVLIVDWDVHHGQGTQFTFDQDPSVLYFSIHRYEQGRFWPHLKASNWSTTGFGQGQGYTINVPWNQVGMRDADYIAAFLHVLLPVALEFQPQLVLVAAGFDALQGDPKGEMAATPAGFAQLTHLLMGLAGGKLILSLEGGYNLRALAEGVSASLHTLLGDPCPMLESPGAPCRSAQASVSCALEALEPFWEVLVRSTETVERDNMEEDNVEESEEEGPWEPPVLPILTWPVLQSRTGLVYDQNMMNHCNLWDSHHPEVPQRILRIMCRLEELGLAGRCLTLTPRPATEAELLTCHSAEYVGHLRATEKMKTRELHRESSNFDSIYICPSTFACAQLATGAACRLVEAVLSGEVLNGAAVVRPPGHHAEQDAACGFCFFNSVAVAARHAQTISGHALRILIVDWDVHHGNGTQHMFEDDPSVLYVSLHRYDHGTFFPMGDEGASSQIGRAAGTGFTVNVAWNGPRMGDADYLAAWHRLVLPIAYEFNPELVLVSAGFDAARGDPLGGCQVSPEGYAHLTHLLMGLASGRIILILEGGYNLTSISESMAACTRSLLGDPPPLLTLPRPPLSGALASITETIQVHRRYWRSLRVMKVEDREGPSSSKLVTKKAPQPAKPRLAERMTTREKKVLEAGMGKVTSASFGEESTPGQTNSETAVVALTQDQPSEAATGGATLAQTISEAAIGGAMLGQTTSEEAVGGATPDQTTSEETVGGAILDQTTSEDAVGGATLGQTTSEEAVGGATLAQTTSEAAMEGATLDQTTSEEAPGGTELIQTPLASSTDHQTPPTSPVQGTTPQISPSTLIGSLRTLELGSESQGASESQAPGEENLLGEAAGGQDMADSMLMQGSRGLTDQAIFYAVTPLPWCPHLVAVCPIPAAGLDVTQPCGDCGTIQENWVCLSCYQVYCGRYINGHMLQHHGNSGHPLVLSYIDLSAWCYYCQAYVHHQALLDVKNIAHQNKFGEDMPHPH
Chain of HDAC1 (Q13547 whole entry): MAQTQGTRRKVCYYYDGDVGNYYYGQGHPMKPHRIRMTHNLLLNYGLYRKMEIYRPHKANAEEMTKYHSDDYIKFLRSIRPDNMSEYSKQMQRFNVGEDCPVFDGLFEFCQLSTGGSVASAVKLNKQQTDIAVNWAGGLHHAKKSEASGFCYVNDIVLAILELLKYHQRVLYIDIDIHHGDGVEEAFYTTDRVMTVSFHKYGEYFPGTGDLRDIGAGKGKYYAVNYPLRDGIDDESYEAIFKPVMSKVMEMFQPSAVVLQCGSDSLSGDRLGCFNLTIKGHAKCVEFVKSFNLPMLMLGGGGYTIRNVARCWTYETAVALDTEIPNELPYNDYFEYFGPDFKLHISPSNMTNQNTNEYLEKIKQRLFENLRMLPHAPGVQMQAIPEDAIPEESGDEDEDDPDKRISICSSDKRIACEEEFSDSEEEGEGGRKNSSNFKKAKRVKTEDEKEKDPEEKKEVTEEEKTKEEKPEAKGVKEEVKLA
Chain of HDAC10 (Q969S8 whole entry): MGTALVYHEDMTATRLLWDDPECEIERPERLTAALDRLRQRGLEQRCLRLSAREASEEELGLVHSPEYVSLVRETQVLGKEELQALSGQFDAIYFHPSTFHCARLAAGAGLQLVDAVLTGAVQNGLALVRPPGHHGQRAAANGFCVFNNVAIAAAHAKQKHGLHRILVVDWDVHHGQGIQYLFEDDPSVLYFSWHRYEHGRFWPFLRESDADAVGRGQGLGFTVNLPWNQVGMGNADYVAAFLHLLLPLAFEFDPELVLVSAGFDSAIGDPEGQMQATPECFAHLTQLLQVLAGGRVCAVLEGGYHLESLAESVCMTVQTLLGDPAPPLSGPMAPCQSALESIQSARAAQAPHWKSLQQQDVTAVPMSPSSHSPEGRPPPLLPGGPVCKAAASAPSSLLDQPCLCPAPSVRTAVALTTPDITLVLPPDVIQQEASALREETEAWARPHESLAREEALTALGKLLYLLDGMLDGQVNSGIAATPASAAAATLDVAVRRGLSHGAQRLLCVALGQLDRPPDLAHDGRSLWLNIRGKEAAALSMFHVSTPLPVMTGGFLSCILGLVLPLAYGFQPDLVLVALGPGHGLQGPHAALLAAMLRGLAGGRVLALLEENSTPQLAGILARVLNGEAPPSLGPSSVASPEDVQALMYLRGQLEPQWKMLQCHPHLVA
Chain of HDAC3 (O15379 whole entry): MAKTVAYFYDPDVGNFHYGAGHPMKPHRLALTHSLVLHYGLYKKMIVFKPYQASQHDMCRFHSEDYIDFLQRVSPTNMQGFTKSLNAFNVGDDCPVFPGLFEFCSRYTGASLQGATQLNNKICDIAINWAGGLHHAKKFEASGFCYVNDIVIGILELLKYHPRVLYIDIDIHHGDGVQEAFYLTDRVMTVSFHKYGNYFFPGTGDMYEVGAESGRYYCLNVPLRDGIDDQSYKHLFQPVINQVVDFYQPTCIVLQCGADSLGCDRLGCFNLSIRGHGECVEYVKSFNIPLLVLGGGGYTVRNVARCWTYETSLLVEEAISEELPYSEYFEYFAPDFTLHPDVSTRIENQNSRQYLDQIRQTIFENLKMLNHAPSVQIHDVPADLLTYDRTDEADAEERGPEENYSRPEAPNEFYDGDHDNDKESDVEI
Chain of HDAC3 (Q9Y618 395-489 partner): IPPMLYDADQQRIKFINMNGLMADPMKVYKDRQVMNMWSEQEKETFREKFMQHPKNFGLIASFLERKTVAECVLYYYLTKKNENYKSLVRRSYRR
Chain of HDAC2 (Q92769 whole entry): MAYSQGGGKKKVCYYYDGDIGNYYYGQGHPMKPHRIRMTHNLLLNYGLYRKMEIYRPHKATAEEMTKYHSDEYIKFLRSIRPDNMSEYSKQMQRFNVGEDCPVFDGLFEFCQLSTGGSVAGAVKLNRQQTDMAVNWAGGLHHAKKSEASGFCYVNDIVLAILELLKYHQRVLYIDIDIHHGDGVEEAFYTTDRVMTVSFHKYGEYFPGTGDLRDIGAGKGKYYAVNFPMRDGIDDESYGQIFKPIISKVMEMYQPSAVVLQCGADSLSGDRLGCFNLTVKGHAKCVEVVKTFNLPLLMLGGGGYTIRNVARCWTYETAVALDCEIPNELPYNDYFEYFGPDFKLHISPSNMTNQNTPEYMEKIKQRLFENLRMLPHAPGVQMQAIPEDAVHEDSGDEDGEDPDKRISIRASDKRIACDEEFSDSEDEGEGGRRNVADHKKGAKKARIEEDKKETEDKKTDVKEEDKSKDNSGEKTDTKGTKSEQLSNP
Chain of HDAC8 (Q9BY41 whole entry): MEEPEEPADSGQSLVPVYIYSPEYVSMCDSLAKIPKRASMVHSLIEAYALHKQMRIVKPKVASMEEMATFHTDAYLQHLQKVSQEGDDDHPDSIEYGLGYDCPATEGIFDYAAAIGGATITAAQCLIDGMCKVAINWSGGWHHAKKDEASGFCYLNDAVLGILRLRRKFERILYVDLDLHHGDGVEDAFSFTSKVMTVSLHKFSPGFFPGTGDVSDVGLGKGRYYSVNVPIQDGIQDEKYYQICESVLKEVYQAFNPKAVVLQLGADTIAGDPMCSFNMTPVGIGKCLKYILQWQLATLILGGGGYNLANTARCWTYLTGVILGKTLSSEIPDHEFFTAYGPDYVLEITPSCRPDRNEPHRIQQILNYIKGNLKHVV

| SMILES | IC50 (HDAC6) | IC50 (SKM-1 cells; Homo sapiens, SKM-1, 72 h) | IC50 (HCT-116 cells; Homo sapiens, HCT-116, 72 h) | IC50 (HDAC1) | IC50 (SKM-1 cells; 72 h) | IC50 (HCT-116 cells; 72 h) | IC50 (HDAC2) | IC50 (HDAC10) | IC50 (HDAC3) | IC50 (HDAC8) |
| --- | --- | --- | --- | --- | --- | --- | --- | --- | --- | --- |
| C[C@@H](c1ccc(C(=O)Nc2cc(F)ccc2N)cc1)n1nc(-c2ccc(CN(C)C)cc2)ccc1=O [Compound I-12] | > 10000 nM | 100 nM | 140 ± 4 nM | 31.3 ± 3.27 nM | – | – | – | – | – | – |
| C[C@@H](c1ccc(C(=O)Nc2cccc(F)c2N)cc1)n1nc(-c2ccc(CN(C)C)cc2)ccc1=O [Compound I-9] | > 10000 nM | 340 ± 13 nM | 500 ± 65 nM | 122 ± 11.1 nM | – | – | – | – | – | – |
| CC(c1ccc(C(=O)Nc2ccccc2N)cc1)n1nc(-c2ccc(CN(C)C)cc2)ccc1=O (racemic) [HYH-072 (racemate of I-2), reference compound] | – | 90 ± 4 nM | 110 ± 7 nM | – | – | – | – | – | – | – |
| CC(c1ccc(C(=O)Nc2ccc(F)cc2N)cc1)n1nc(-c2ccc(CN(C)C)cc2)ccc1=O (racemic) [HYH-073 (racemate of I-1), reference compound] | – | 230 ± 10 nM | 380 ± 1 nM | – | – | – | – | – | – | – |
| Nc1cc(F)ccc1NC(=O)c1ccc(CNC(=O)/C=C/c2cccnc2)cc1 [Chidamide, reference compound] | – | 550 ± 4 nM | 1700 ± 105 nM | – | – | – | – | – | – | – |
| Nc1ccccc1NC(=O)c1ccc(CNC(=O)OCc2cccnc2)cc1 [MS-275, Entinostat, reference compound] | – | 390 nM | 1480 ± 8 nM | – | – | – | – | – | – | – |
| COc1ccc(N)c(NC(=O)c2ccc([C@H](C)n3nc(-c4ccc(CN(C)C)cc4)ccc3=O)cc2)c1 [Compound I-11] | > 10000 nM | – | – | 42.4 ± 0.8 nM | 270 ± 19 nM | 310 ± 37 nM | – | – | – | – |
| C[C@@H](c1ccc(C(=O)Nc2ccccc2N)cc1)n1nc(-c2ccncc2)ccc1=O [Compound I-6] | > 10000 nM | 240 ± 11 nM | 330 ± 4 nM | 60.5 ± 5.73 nM | – | – | – | – | – | – |
| COc1ccc(NC(=O)c2ccc([C@H](C)n3nc(-c4ccc(CN(C)C)cc4)ccc3=O)cc2)c(N)c1 [Compound I-8] | > 10000 nM | 490 ± 16 nM | 870 ± 37 nM | 126 ± 18.3 nM | – | – | – | – | – | – |
| C[C@@H](c1ccc(C(=O)Nc2ccccc2N)cc1)n1nc(-c2cccc(Cl)c2)ccc1=O [Compound I-3] | > 10000 nM | 270 ± 13 nM | 390 ± 6 nM | 52.4 ± 10.2 nM | – | – | – | – | – | – |
| Cc1ccc(N)c(NC(=O)c2ccc([C@H](C)n3nc(-c4ccc(CN(C)C)cc4)ccc3=O)cc2)c1 [Compound I-13] | > 10000 nM | – | – | 44.8 ± 1.53 nM | 170 ± 2 nM | 220 ± 24 nM | – | – | – | – |
| C[C@@H](c1ccc(C(=O)Nc2cc(F)c(F)cc2N)cc1)n1nc(-c2ccc(CN(C)C)cc2)ccc1=O [Compound I-7] | > 10000 nM | 210 ± 5 nM | 310 ± 18 nM | 99.5 ± 11.1 nM | – | – | – | – | – | – |
| C[C@@H](c1ccc(C(=O)Nc2ccccc2N)cc1)n1nc(-c2cnn(C)c2)ccc1=O [Compound I-5] | > 10000 nM | 200 ± 1 nM | 280 ± 8 nM | 124 ± 24.4 nM | – | – | – | – | – | – |
| COc1cccc(-c2ccc(=O)n([C@@H](C)c3ccc(C(=O)Nc4ccccc4N)cc3)n2)c1 [Compound I-4] | > 10000 nM | 160 ± 1 nM | 230 ± 4 nM | 35.2 ± 4.47 nM | – | – | – | – | – | – |
| C[C@H](c1ccc(C(=O)Nc2ccc(F)cc2N)cc1)n1nc(-c2ccc(CN(C)C)cc2)ccc1=O [I-1 (R configuration), reference compound] | > 10000 nM | – | – | 375 ± 42.1 nM | 1060 ± 79 nM | 1550 ± 94 nM | 320 ± 48 nM | > 100000 nM | 720 ± 196 nM | > 100000 nM |
| C[C@@H](c1ccc(C(=O)Nc2ccccc2N)cc1)n1nc(-c2ccc(CN(C)C)cc2)ccc1=O [Compound I-2] | > 10000 nM | 60 ± 1 nM | 80 ± 2 nM | 23.3 ± 1.1 nM | – | – | 90 ± 2 nM | > 100000 nM | 390 ± 28 nM | > 100000 nM |
| C[C@@H](c1ccc(C(=O)Nc2ccccc2N)cc1)n1nc(-c2ccccc2)ccc1=O [Compound I-10] | > 10000 nM | – | 400 ± 72 nM | 50.5 ± 13.7 nM | – | – | – | – | – | – |
